# From US20040029130A1, “Drug screening systems and assays” (priority 2000, published 2004)
# “Also recorded” adds a separate entry of the source.
# Legend:
# [1] = test system: non-homologous end-joining (NHEJ) of DNA by PC-C (Ku70/80, DNA-PKcs, XRCC4, DNA ligase IV); assay: DNA end-joining (NHEJ) complementation assay with HeLa fraction PC-C; type: biochemical, human; conditions: for ability to stimulate DNA end-joining (NHEJ) by PC-C: FIG. 4C, 6A, 8; for concentration that saturates the NHEJ system / Kd: components derived from humans; for Kd: crude estimate, read-out: estimate of the Kd in the NHEJ system; for stimulation of NHEJ by PC-C relative to IP6: FIG. 8
# Description: Fraction PC-C was dialyzed for 2 hours against L buffer (20 mM Tris-HCl pH 8.0, 25 mM KOAc, 0.5 mM EDTA, 10% glycerol, 1 mM DTT) and stored at −80° C.
# End joining reactions (10 μl) were carried out in 50 mM HEPES pH 8.0, 40 mM KOAc, 0.5 mM Mg(OAc)2, 1 mM ATP, 1 mM DTT, 0.1 mg/ml BSA, contained 2-3 μl (3-5 μg) of PC-C and HindIII-linearized 5′-^32P-labeled pDEA7Z DNA (10 ng). Incubation was for 1 hour at 37° C. ^32P-labeled DNA products were deproteinized and analyzed by electrophoresis through 0.6% agarose gels followed by autoradiography. Quantification of joining efficiency was carried out by phosphorimaging and the data are presented as (% total ends-joinedsample)−(% total ends-joinedPC-C) unless otherwise stated. For assays of inositol phosphates, aqueous solutions were added directly to the end-joining reactions. For the screening of column fractions; 0.5-1 μl of diluted (in L buffer) or undiluted column fractions were added
# phosphatases = conditions: cited from earlier work
# Ku 70/80 heterodimer = target: T1, Ku 70/80 heterodimer (Homo sapiens, UniProt P12956+P13010); assay: Gel filtration binding and competition analysis with purified Ku 70/80; conditions: for binding by Ku 70/80 heterodimer: gel filtration, FIG. 10-12; for loss in 3H-IP6 binding by Ku (competition): one molar equivalent of competitor
# T1 construct: made in house
# Description: (§1) Superdex 200 gel filtration, 50 μl fractions, scint. counting 20 μl/fraction 100 nM ^3H-IP6, 100 nM Ku, 100 nM DNA ([…]), 100 nM PKcs. Running buffer. 50 mM HEPES, pH 8.0, 40 mM KOAc, 10% Glycerol, 0.1 M KCl, 1 mM DTT.
# (§2) Ku 70/80 and DNA-PKcs were purified to homogeneity and used to examine the binding of IP6 by DNA-PK ^3H-IP6 was used in these binding experiments and the curves presented in FIG. 10 represent the distribution of ^3H-IP6 along a gel filtration column under various conditions. ^3H-IP6 observed in a peak below 17 kD represents unbound ^3H-IP6. In the presence of purified Ku 70/80 (±DNA-PKcs) ^3H-IP6 elutes early from the column near the 150 MW point. […] It is believed that DNA-PK assembles on DNA and that in the absence of DNA that Ku and DNA-PKcs, are separate in solution. The addition of DNA to the Ku-^3H-IP6 complex results in a shift in the elution profile from the gel filtration column—the peak is broader (possibly owing to the mobility of the DNA) and has an earlier start point. […] Finally, the addition of DNA-PKcs, to the Ku-IP6DNA complex results in an additional increase in mobility along the gel filtration column. The species appears very large—near 670 kD—which is consistent with it containing Ku 70/80, ^3H-IP6, DNA-PKcs and DNA.
# The specificity of IP6 binding by Ku was examined by competition analysis (FIG. 13) using IP3, IP6 and IP7. […] These findings may be extended to postulate that while IP6 is bound by Ku, that the stimulatory effect of IP6 on NHEJ probably results from additional interactions that may be regulated by formation of the IP6-Ku complex.
# T4 DNA ligase = target: T2, T4 DNA ligase (Enterobacteria phage T4, UniProt P00970); assay: T4 DNA ligation assay; type: biochemical; conditions: 2 μM IP6, T4 DNA ligase 0.1 u/μl, FIG. 6B
# T2 construct: purchased NEB
# T2 sequence (P00970 1-487): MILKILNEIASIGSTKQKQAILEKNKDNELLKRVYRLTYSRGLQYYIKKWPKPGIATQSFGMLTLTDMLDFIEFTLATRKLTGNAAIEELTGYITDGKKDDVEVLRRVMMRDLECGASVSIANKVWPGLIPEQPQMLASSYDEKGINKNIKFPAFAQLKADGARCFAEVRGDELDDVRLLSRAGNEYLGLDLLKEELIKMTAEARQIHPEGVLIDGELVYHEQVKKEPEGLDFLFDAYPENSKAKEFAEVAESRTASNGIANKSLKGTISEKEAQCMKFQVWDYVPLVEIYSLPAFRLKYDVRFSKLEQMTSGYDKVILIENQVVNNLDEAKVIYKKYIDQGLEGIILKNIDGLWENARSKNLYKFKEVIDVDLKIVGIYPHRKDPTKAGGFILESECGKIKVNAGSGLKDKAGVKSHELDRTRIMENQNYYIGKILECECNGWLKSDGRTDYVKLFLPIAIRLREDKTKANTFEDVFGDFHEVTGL
# Description: Reactions (10 μl) containing T4 DNA ligase (NEB) were carried out in 1×T4 DNA ligase buffer (NEB) at 25° C. in the presence and absence of inositol phosphates. Reactions were stopped, deproteinized and the products analyzed by agarose gel electrophoresis.
# skin cancer development = conditions: mice, given orally; cited from earlier work
# DNA-PKcs = target: T3, DNA-PKcs (Homo sapiens, UniProt P78527); assay: Gel filtration binding with purified DNA-PKcs; conditions: absence of DNA, FIG. 10-11
# T3 construct: made in house
# Description: as §1, §2
# DNA-PK = target: T4, DNA-PK (Homo sapiens, UniProt P12956+P13010); assay: Gel filtration analysis of 3H-inositol phosphate binding by DNA-PK; conditions: for binding by DNA-PK: gel filtration, 100 nM 3H-ligand, FIG. 7
# T4 construct: purchased Promega
# Description: Binding reactions (55 μl) were carried out in 25 mM HEPES pH 7.5, 50 mM KCl, 10 mM MgCl2, 1 mM DTT, 10% glycerol, 0.1% NP-40 with 5000 units of DNA-PK (Promega) or 1.8 mg/ml of protein size standards for gel filtration (BioRad) and 100 nM ^3H-IP6 or ^3H-IP3 at 4° C. for 30 min. Complexes were resolved on a Superose 12 PC3.2/30 column run in 50 mM HEPES pH 8.0, […], 0.1M KCl, 10% glycerol, 1 mM DTT at 40 μl/min. 50 μl fractions were collected; 20 μl samples of each fraction were used for ^3H scintilation counting (10 min/sample in 5 ml EcoscintA) and 10 μl were assayed for DNA-PK kinase activity using the SignaTECT DNA-PK assay system (Promega).
# The specificity of IP6 recognition by DNA-PK was assessed by competition trials using inositol hexasulphate (IS6). […] Addition of DNA-PK results in an increase in the mobility of the ^3H-IP6 indicating complex formation. IS6, presented in 10- and 100-fold molar excess have no effect on the amount of ^3H-IP6 bound by DNA-PK.
# T1 sequence (P12956 whole entry): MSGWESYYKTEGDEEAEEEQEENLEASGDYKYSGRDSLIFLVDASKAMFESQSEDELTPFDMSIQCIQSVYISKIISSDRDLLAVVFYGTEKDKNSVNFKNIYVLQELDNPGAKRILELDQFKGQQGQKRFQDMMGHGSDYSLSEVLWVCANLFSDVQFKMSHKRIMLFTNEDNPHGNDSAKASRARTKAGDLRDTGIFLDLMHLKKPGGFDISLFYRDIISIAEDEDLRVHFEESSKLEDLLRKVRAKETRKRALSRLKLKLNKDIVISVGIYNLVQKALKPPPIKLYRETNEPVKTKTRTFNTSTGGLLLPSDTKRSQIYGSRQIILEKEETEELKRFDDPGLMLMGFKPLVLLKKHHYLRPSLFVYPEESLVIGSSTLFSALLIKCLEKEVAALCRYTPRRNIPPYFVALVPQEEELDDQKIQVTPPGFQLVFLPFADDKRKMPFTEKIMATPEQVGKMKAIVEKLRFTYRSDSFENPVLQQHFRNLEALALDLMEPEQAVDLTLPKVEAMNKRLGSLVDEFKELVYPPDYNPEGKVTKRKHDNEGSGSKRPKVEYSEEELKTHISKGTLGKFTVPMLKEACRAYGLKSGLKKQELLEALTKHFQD
# T1 sequence (P13010 whole entry): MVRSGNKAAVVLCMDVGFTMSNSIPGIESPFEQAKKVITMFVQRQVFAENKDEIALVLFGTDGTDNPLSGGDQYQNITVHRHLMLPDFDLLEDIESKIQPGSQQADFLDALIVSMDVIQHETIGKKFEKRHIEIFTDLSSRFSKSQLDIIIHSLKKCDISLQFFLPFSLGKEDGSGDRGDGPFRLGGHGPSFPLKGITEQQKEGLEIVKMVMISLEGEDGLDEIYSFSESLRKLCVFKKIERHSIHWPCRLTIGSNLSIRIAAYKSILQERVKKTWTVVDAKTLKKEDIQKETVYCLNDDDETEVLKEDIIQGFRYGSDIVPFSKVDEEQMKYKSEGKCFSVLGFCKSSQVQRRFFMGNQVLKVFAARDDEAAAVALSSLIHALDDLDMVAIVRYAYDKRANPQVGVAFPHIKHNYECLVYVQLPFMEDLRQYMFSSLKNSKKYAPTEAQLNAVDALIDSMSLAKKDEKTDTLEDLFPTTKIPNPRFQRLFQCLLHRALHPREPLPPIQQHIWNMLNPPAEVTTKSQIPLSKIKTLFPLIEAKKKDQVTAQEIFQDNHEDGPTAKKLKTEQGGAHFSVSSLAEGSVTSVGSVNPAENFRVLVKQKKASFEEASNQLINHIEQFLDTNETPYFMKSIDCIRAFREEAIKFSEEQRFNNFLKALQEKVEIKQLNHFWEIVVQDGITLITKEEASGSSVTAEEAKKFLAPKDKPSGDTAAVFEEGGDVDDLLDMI
molecule,measurement,setting,value
"O=P(O)(O)OC1[C@H](O)[C@H](OP(=O)(O)O)C(OP(=O)(O)O)[C@H](OP(=O)(O)O)[C@H]1O (stereo partly drawn) [IP4, D-myo-inositol 1,3,4,5-tetrakisphosphate]",ability to stimulate DNA end-joining (NHEJ) by PC-C,[1],"able to stimulate end-joining, but the efficiency of this stimulation was reduced relative to IP6; also recorded: able to stimulate end-joining, though to a lesser extent; also recorded: stimulate NHEJ of DNA"
"O=P(O)(O)O[C@@H]1[C@@H](OP(=O)(O)O)[C@H](OP(=O)(O)O)[C@H](O)[C@H](OP(=O)(O)O)[C@H]1OP(=O)(O)O [IP5, myo-inositol 1,3,4,5,6-pentakisphosphate]",ability to stimulate DNA end-joining (NHEJ) by PC-C,[1],"able to stimulate end-joining, but the efficiency of this stimulation was reduced relative to IP6; also recorded: able to stimulate end-joining, though to a lesser extent; also recorded: stimulate NHEJ of DNA"
"O=P(O)(O)OC1C(OP(=O)(O)O)C(OP(=O)(O)O)C(OP(=O)(O)O)C(OP(=O)(O)O)C1OP(=O)(O)O (stereo not drawn) [IP6, myo-inositol 1,2,3,4,5,6-hexakisphosphate]",concentration at which it functions as a phosphatase inhibitor,phosphatases,≥ 10 µM
same,low concentration at which end-joining can be stimulated (discussion),[1],100 µM
same,concentration of maximal stimulation of end-joining by PC-C,[1]; FIG. 4B,1 µM
same,concentration at which end-joining by PC-C is stimulated,"[1]; FIG. 4B, commercially available IP6",~100 nM
same,ability to stimulate DNA end-joining (NHEJ) by PC-C,[1],most effective inositol phosphate compound of those tested; also recorded: stimulated end-joining by PC-C; also recorded: stimulate NHEJ of DNA
same,concentration that saturates the NHEJ system,[1],10 µM
same,Kd,[1],~1 µM
same,binding by Ku 70/80 heterodimer,Ku 70/80 heterodimer,bind
same,binding by Ku 70/80 heterodimer,Ku 70/80 heterodimer; listed as 3H-IP6,binds
same,loss in 3H-IP6 binding by Ku (competition),Ku 70/80 heterodimer; FIG. 13,~50%
same,effect on efficiency of ligation by T4 DNA ligase,T4 DNA ligase,unaffected; also recorded: no effect
same,effect on skin cancer development,skin cancer development,reduces initiation of skin cancer development but not its promotion
same,interaction with DNA-PKcs,DNA-PKcs,does not interact
same,binding by DNA-PK,DNA-PK,capable of binding; also recorded: binds
"O=P(O)(O)O[C@H]1[C@@H](OP(=O)(O)O)[C@H](OP(=O)(O)O)[C@@H](OP(=O)(O)OP(=O)(O)O)[C@H](OP(=O)(O)O)[C@H]1OP(=O)(O)O [IP7 pp5, myo-5-diphosphoinositol 1,2,3,4,6-pentakisphosphate]",ability to stimulate DNA end-joining (NHEJ) by PC-C,[1],do stimulate NHEJ by PC-C
same,stimulation of NHEJ by PC-C relative to IP6,[1],approximately 10 fold
"O=P(O)(O)OC1[C@@H](OP(=O)(O)O)[C@H](OP(=O)(O)O)C(OP(=O)(O)OP(=O)(O)O)[C@H](OP(=O)(O)O)[C@H]1OP(=O)(O)O (stereo partly drawn) [IP7, diphosphoinositol pentakisphosphate]",stimulation of NHEJ by PC-C relative to IP6,[1],10 fold
same,concentration that saturates the NHEJ system,[1],1 µM
same,Kd,[1],~100 µM
same,binding by Ku 70/80 heterodimer,Ku 70/80 heterodimer,bind
same,loss in 3H-IP6 binding by Ku (competition),Ku 70/80 heterodimer; FIG. 13,~50%
same,binding by DNA-PK,DNA-PK,binds
"O=P(O)(O)O[C@H]1[C@@H](OP(=O)(O)O)[C@@H](OP(=O)(O)O)[C@H](OP(=O)(O)OP(=O)(O)O)[C@@H](OP(=O)(O)O)[C@@H]1OP(=O)(O)O [IP7-pp6, myo-6-diphosphoinositol 1,2,3,4,5-pentakisphosphate]",ability to stimulate DNA end-joining (NHEJ) by PC-C,[1],do stimulate NHEJ by PC-C
same,stimulation of NHEJ by PC-C relative to IP6,[1],approximately 10 fold
"O=S(=O)(O)OC1C(OS(=O)(=O)O)C(OS(=O)(=O)O)C(OS(=O)(=O)O)C(OS(=O)(=O)O)C1OS(=O)(=O)O (stereo not drawn) [IS6, inositol hexasulphate]",ability to stimulate DNA end-joining (NHEJ) by PC-C,[1],unable to stimulate end-joining
same,effect on the amount of 3H-IP6 bound by DNA-PK (competition),"DNA-PK; 10- and 100-fold molar excess, FIG. 9",does not compete; also recorded: no effect
"myo-inositol 1,4,5-trisphosphate [IP3]",ability to stimulate DNA end-joining (NHEJ) by PC-C,[1],inhibitory; also recorded: does not stimulate NHEJ
same,ability to stimulate DNA end-joining (NHEJ) by PC-C,"[1]; listed as myo-inositol 1,4,5-trisphosphate",inhibit end-joining
same,effect on 3H-IP6 binding by Ku (competition),"Ku 70/80 heterodimer; 3-fold molar excess of competitor, FIG. 13",no effect
same,binding by DNA-PK,DNA-PK,not
same,binding by DNA-PK,DNA-PK; listed as 3H-IP3,not altered by the presence of DNA-PK
